According to patent US8653049B2, “Normuramyl glycopeptide compounds” (priority 2008, dated 2014):
Where two headings read alike, the source gives them in different places.

Key:
[1] = test system: Salmonella enteritidis; assay: Stimulation of innate immunity against Salmonella Enteritidis; details: liposomal, 20 nmol per dose p.o. 72 and 24 h before infection (LD50); 5 mice
[2] = rabbits, 3 rabbits per group
Description: The test was conducted in an authorised laboratory, ITEST plus s.r.o., Bilé Vchýnice 10, 533 13 Vápno u Prelouce, Czech Republic, according to guide-lines CL 2005.
Rabbits (New Zeeland albino, 4-6 kg, 3 animals per group) were used for testing.
Liposomal preparations of muramyl glycopeptide derivatives were administered s.c. (100 nmol/kg). Empty liposomes were used as negative control and the liposomal as well as the free form of muramyl dipeptide (MDP) (25 μg/kg, corresponding to 50.7 nmol/kg) served as positive control. Temperature was measured in 1, 2, 3, 4,6 and 24 hour intervals.
Empty liposomes were used as negative control; and liposomal as well as free muramyl dipeptide (MDP) (50.7 nmol/kg) served as positive control. B30-norAbu-MDP (MT01, structure on page 5) served as additional control. Temperature was measured in 1, 2, 3, 4, 6 and 24 h intervals. The preparation passed the test if the Sum of ΔTmax remained below 1.1° C. (3 rabbits per group)

[3] = test system: NK sensitive K562 cell line; assay: NK cell cytotoxicity of human PBMC, 51Cr-release against K562; assay type: cell-based; details: range 0.1 μM-100 μM; FIG. 28
Description: Ex vivo effects of test compounds on NK cells were evaluated on human peripheral blood mononuclear cells (PBMC). The NK cell cytotoxicity of healthy donors in the presence or absence of test compounds was measured in standard 4 hrs ^51Cr-release assay against NK sensitive K562 cell line in effector (PBMC) to target (K562) ratio 16:1. Test compounds were added at a concentration of 10^−7 mol/ml.
Testing of compounds 23, 24, 32, 33, 40 and 41 for their capacity to induce cell-mediated cytotoxicity of human eripheral blood mononuclear cells (PBMCs) is shown in FIGS. 27 and 28. All donors were healthy. […] The cytotoxicity of untreated controls (30.5%) was renormalized to 100%.

[4] = test system: Friend leukemia virus (FLV); assay: Friend leukemia virus infection: survival, TER-119+ cells, spleen
[5] = test system: myelin basic protein induced EAE; assay: Experimental allergic encephalomyelitis (EAE), Th1 adjuvant activity; assay type: in vivo, guinea pigs; details: for Positive animals (%) (incidence of EAE): 50 μg myelin basic protein + 1 mg test compound in FIA, footpads, up to day 21, FCA positive control
[6] = test system: bone-marrow cells; assay: Restoration of bone-marrow proliferation in azathioprine-suppressed mice; assay type: in vivo, CBA/J mice; set-up: key: +: restoration under the level of intact bone-marrow response; ++: restoration above the level of intact bone-marrow response; details: two i.v. doses of 200 nmol 30 and 6 h before oral azathioprine 5 mg per mouse; bone marrow 66 h after
Description: CBA/J male mice 8 weeks old, weighing 18-20 g were administered two i.v. doses of 200 nmol test substance per mouse 30 and 6 h prior to oral application of azathioprine (Imuran Wellcome, 5 mg per mouse in a volume of 0.5 ml distilled water). Bone marrow (lavage of femurs) was sampled 66 h after the application of azathioprine. Pooled suspensions of bone-marrow cells from 3 mice were cultivated in RPMI-1640 medium with 5% of fetal bovine serum (both from Sigma) at a concentration of 2×10^5 cells/0.2 ml either without mitogen (spontaneous proliferation) or in the presence of T (phytohemagglutinin, PHA Murex, 50 μg/ml; concanavalin A, Con A Sigma, 1, 2.5 or 5 μg/ml) or B (lipopolysaccharide, LPS E. coli O55 Difco, 5 μg/ml) mitogens for 48 h at 37° C. in 5% CO2. Proliferative activity was measured by incorporation of 3H-thymidine (1 μCi/well) and expressed as stimulation index SI=mean cpm cultures with mitogen/mean cpm controls without mitogen. Statistical significance of stimulation was evaluated by the Student's t test.

Compound: CCCCCCCCCCCCCCC(CCCCCCCCCCCCCC)C(=O)NCCCC[C@H](NC(=O)CC[C@@H](NC(=O)[C@H](CC)NC(=O)CO[C@H]1[C@H](O[C@@H]2O[C@H](CO)[C@@H](O)[C@H](O)[C@H]2NC(C)=O)[C@@H](CO)OC(O)[C@@H]1NC(C)=O)C(N)=O)C(=O)O (stereo partly drawn) [Compound 41, N-[2-O-(2-Acetamido-2-deoxy-β-D-glucopyranosyl-(1→4)-2-acetamido-2,3-dideoxy-D-glucopyranose-3-yl)-glycoloyl]-L-α-aminobutanoyl-D-isoglutaminyl-L-lysine(2-tetradecylhexadecanoyl)]
- Day 6 Intest.: clear/infected/dead [1]: 2/3/0
- Day 6 Liver: clear/infected/dead [1]: 2/3/0
- Day 6 Lungs: clear/infected/dead [1]: 4/1/0
- Day 6 Spleen: clear/infected/dead [1]: 2/3/0
- Day 12 Intest.: clear/infected/dead [1]: 1/2/2
- Day 12 Liver: clear/infected/dead [1]: 2/1/2
- Day 12 Lungs: clear/infected/dead [1]: 2/1/2
- Day 12 Spleen: clear/infected/dead [1]: 2/1/2
- +ΔTmax (Sum of ΔTmax) ([2]; liposomal preparations s.c. 100 nmol/kg, passes if below 1.1° C.): 0.8 °C
- dose response of NK cell activity [3]: negative dose response
- survival, late phase (days 55 and 59), long-term ([4]; 10 μmol i.p., non-liposomal, control 0%, FIG. 23): ensure long-term survival
- survival, early phase (day 43) ([4]; 10 μmol i.p., non-liposomal, saline control 82%, FIG. 23): survival rate worse than control
- clonal expansion of TER-119+ erythroleukaemia cells in spleen ([4]; day 16, FIG. 24): pronounced opposite effect
- spleen size (weight) ([4]; day 16, FIG. 25): increased spleen size

Compound: CC(=O)N[C@H]1[C@H](O[C@H]2[C@H](O[C@H](C)C(=O)N[C@@H](C)C(=O)N[C@H](CCC(=O)O)C(N)=O)[C@@H](NC(C)=O)C(O)O[C@@H]2CO)O[C@H](CO)[C@@H](O)[C@@H]1O (some centres unmarked) [GMDP, glucosaminylmuramyl dipeptide]
- Positive animals (%) (incidence of EAE) [5]: 65%
- Restoration of BM Proliferation in Immunosuppressive Therapy [6]: ++

Compound: CC(=O)N[C@@H]1[C@@H](O[C@H](C)C(=O)N[C@@H](C)C(=O)N[C@H](CCC(=O)O)C(N)=O)[C@H](O)[C@@H](CO)O[C@H]1O [MDP, muramyldipeptide]
- Positive animals (%) (incidence of EAE) [5]: 58%
- Restoration of BM Proliferation in Immunosuppressive Therapy [6]: +
- +ΔTmax (Sum of ΔTmax) ([2]; MDP positive control 25 μg/kg (50.7 nmol/kg), liposomal or free): 2.9 °C

Compound: CC[C@H](NC(=O)CO[C@H]1[C@H](O[C@@H]2O[C@H](CO)[C@@H](O)[C@H](O)[C@H]2NC(C)=O)[C@@H](CO)OC(O)[C@@H]1NC(C)=O)C(=O)N[C@H](CCC(=O)O)C(N)=O (some centres unmarked) [norAbu-GMDP]
- Positive animals (%) (incidence of EAE) [5]: 90%
- Th1 stimulation (EAE) ([5]; guinea pigs sensitized with bovine MBP in IFA + compound, FIG. 31): superior to MDP and GMDP as Th1 adjuvants
- Restoration of BM Proliferation in Immunosuppressive Therapy [6]: ++

Compound: CCC(NC(=O)COC1C(O)C(CO)OC(O)C1NC(C)=O)C(=O)NC(CCC(=O)O)C(N)=O (centres unmarked) [norAbu-MDP]
- Restoration of BM Proliferation in Immunosuppressive Therapy [6]: +
